One assay has as its target PARP1 (Homo sapiens, UniProt P09874). Put plainly: PARP1 fluorescence polarization binding assay. The note with it: binding IC50, GST-tagged PARP1 20 nM, PARPi-FL 3 nM. The protocol: Compounds of the present disclosure were tested in a PARP1 fluorescence polarization binding assay at Pharmaron (Beijing, P.R.China). In this biochemical assay, binding of test compound to recombinant human PARP1 reduces the amount of binding of a fluorescent probe, and consequently reduces the detected level of fluorescence polarization. Test compound stock solutions were prepared in DMSO and then serially diluted into 10 concentrations by 3-fold dilution in a 384-well plate using a TECAN EVO200. 60 nL of each dilution was transferred to the plate using an Echo550 (Labcyte), and then 10 μL 40 nM GST-tagged PARP1 (BPS Bioscience, Cat #80501), diluted in assay buffer (50 mM Tris pH 8.0, 0.001% Triton X-100, 10 mM MgCl2, 150 mM NaCl), was added to the plate. After a centrifugation at 1000 rpm for 1 min, the assay plate was incubated for 30 min at RT. 10 μL 6 nM PARPi-FL (TOCRIS, Cat #6461), diluted using assay buffer, was then added to the plate. The final concentrations of PARP1 and PARPi-FL were 20 nM and 3 nM, respectively, in a total volume of 20 μL. After a centrifugation at 1000 rpm for 1 min, the assay plate was incubated for 4 h at RT. Samples in each well were read using an Envision instrument (Perkin-Elmer; Ex=480 nm Em=FITC FP-P pol 535 nm & FITC FP-S pol 535 nm). Percent inhibition was calculated from mP values using Inhibition (%)=[1−(mPc−mPL)/(mPH−mPL)]×100%, where mPc, mPL, and mPH are the mP values of test compound, Low controls, and High controls, respectively. Binding IC50 values were calculated using XLFit (equation 201: y=A+((B−A)/(1+((x/C)^D))), where A=bottom, B=top, C=IC50, and D=slope) with a floating top and bottom for curves. Binding IC50 values are shown in Table A and are presented in ranges, in which “+++”<100 nM, 100 nM≤“++”<3000 nM, and “+”≥3000 nM.
(Fluorescence polarisation rises when a labelled molecule tumbles more slowly, as on binding a larger partner.)

The next assay addresses recombinant human PARP2 (Homo sapiens, UniProt Q9UGN5). The assay can be described thus: PARP2 fluorescence polarization binding assay. The conditions noted are these: for IC50: binding IC50, GST-tagged PARP2 20 nM, PARPi-FL 3 nM; for inhibition at 10 µM: read-out: PARP2 % inh at 10 μM. The protocol:
Compounds of the present disclosure were tested in a PARP2 fluorescence polarization binding assay at Pharmaron (Beijing, P.R. China). In this biochemical assay, binding of test compound to recombinant human PARP2 reduces the amount of binding of a fluorescent probe, and consequently reduces the detected level of fluorescence polarization. Test compound stock solutions were prepared in DMSO and then serially diluted into 10 concentrations by 3-fold dilution in a 384-well plate using a TECAN EVO200. Alternatively, a single concentration was prepared. 60 nL of each dilution was transferred to the plate using an Echo550 (Labcyte), and then 10 μL 40 nM GST-tagged PARP2 (BPS Bioscience, Cat #80502), diluted in assay buffer (50 mM Tris pH 8.0, 0.001% Triton X-100, 10 mM MgCl2, 150 mM NaCl), was added to the plate. After a centrifugation at 1000 rpm for 1 min, the assay plate was incubated for 30 min at RT. 10 μL 6 nM PARPi-FL (TOCRIS, Cat #6461), diluted using assay buffer, was then added to the plate. […] After a centrifugation at 1000 rpm for 1 min, the assay plate was incubated for 4 h at RT. Samples in each well were read using an Envision instrument (Perkin-Elmer; Ex=480 nm Em=FITC FP-P pol 535 nm & FITC FP-S pol 535 nm). […] Binding IC50 values were calculated using XLFit (equation 201: […])^D))), where A=bottom, B=top, C=IC50, and D=slope) with a floating top and bottom for curves.

For assay [1], the system named is DLD-1 BRCA2(−/−) colorectal adenocarcinoma cells. Put plainly: Cell viability assay (Cell Titer-Glo), DLD-1 BRCA2(−/−). In kind it is cell-based. The conditions noted are these: Homo sapiens, DLD-1, 168 h; 7 days incubation, 200 cells/well. The protocol: (§1) Compounds of the present disclosure were tested for their effects on the viability of cancer cells. DLD-1 wild-type and DLD-1 BRCA2(−/−) colorectal adenocarcinoma cells, an isogenic pair of cell lines differing in the presence and absence, respectively, of both BRCA2 alleles, were used. The cells were harvested during the logarithmic growth period, counted, and seeded at 50 cells/well for DLD-1 wild-type and 200 cells/well for DLD-1 BRCA2(−/−) in a 384-well cell culture plate. After seeding, cells were incubated at 37° C., 5% CO2 overnight. Cells were treated with serially diluted test compounds at 10 concentrations (e.g., from 1.5 nM-30 μM) for generation of dose response curves, or at a single concentration. The plate was further incubated for another 7 days in a humidified incubator at 37° C. and 5% CO2. Cell viability was assessed by luminescence measurement after addition of Cell Titer-Glo reagent (Promega, Madison, Wis.) according to the manufacturer's instructions. Cell viability IC50 values were calculated using XLFit, equation 201: y=A+((B−A)/(1+((x/C)^D))), where A=bottom, B=top, C=IC50, and D=slope. IC50 values are shown in Table B and are presented in ranges, in which “+++”<300 nM, 300 nM≤“++”<3000 nM, and “+”≥3000 nM. Values for percent inhibition at 10 μM are also shown in Table B and are presented in ranges, in which “***”≥67%, 33%≤“**”<67%, and “*”<33%. Effects of the test compounds on the viability of other cell lines such as MDA-MB-436, MDA-MB-231, SUM149PT, HCC1395, and UWB1.289 are determined in an analogous method.
Background: In ATP-based viability assays light output follows the ATP content of the culture.

Assay [2] deals with DLD-1 wild-type colorectal adenocarcinoma cells. Put plainly: Cell viability assay (Cell Titer-Glo), DLD-1 wild-type. In kind it is cell-based. The conditions noted are these: Homo sapiens, DLD-1, 168 h, 7 days incubation; for inhibition at 10 µM: read-out: DLD-1 wild-type % inh at 10 μM; for IC50: 50 cells/well. The protocol:
as §1

Where a name gives a salt, the structure may show the parent alone. Bounds are passed on as bounds.

PARP1, sequence (P09874 whole entry): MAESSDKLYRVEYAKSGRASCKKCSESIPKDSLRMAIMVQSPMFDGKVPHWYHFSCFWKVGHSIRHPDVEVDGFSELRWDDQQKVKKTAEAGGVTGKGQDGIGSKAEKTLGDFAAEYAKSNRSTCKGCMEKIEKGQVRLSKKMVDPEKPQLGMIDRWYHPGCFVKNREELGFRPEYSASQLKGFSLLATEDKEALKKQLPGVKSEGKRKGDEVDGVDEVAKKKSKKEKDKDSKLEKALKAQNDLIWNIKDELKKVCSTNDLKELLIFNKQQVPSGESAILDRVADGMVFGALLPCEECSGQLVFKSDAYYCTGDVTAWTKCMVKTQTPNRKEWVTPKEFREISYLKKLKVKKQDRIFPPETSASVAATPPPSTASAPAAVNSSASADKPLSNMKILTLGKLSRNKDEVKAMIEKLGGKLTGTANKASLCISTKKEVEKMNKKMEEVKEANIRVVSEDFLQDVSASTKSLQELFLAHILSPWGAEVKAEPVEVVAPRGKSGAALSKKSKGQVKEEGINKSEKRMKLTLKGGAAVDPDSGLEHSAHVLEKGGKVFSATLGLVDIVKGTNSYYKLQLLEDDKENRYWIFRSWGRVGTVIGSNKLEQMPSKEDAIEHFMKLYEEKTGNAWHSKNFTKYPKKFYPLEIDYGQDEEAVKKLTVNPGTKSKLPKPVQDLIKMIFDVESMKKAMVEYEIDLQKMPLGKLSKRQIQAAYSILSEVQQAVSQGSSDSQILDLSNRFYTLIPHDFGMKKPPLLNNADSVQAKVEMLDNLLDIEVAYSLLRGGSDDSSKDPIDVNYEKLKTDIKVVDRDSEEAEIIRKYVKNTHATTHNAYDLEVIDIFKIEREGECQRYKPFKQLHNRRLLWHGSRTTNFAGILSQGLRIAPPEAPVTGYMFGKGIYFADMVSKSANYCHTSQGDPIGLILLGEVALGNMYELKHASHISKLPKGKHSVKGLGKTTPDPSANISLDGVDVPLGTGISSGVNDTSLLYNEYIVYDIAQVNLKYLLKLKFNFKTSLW
recombinant human PARP2, sequence (Q9UGN5 whole entry): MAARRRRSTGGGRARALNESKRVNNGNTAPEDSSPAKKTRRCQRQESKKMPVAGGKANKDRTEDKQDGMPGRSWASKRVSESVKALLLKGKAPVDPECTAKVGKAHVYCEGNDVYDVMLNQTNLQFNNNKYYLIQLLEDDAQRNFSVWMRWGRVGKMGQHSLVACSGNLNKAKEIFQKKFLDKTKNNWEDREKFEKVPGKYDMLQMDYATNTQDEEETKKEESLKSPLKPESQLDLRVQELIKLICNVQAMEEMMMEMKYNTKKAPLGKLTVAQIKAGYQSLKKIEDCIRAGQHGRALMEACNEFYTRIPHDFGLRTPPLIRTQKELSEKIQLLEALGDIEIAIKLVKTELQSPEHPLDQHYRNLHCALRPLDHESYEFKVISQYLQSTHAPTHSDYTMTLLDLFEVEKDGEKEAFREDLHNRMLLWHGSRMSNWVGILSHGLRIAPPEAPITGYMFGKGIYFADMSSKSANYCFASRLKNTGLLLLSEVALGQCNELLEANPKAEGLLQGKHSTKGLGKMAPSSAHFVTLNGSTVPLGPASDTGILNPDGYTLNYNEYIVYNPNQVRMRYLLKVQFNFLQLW

Consider `CCn1c(=O)[nH]c2cc(CN3CCN(c4ccc(C(=O)NC)nc4)CC3)sc2c1=O` [Compound 86, 5-(4-((3-ethyl-2,4-dioxo-1,2,3,4-tetrahydrothieno[3,2-d]pyrimidin-6-yl)methyl)piperazin-1-yl)-N-methylpicolinamide formate], for which the figures for the IC50 (on PARP1; at recombinant human PARP2; in assay [1]) were less than 0.1 µM, greater than 3 µM and less than 0.3 µM, respectively. For the same molecule, the figures for the inhibition at 10 µM (at recombinant human PARP2; in assay [2]) were 33 to 67% and less than 33%, respectively.
Consider `CCN1Cc2ccc(CN3CCN(c4ccc(F)cc4F)CC3)cc2NC1=O` [Compound 225, 7-{[4-(2,4-difluorophenyl)piperazin-1-yl]methyl}-3-ethyl-1,4-dihydroquinazolin-2-one], for which the IC50 (commonly the concentration that inhibits the measured activity by half) at PARP1 is less than 0.1 µM; in assay [1], greater than 3 µM; in assay [2], greater than 3 µM. In addition, the inhibition at 10 µM at recombinant human PARP2 was 33 to 67%; in assay [2], less than 33%.
On to `CCn1c(=O)[nH]c2cc(CN3CCN(c4cnc5c(NC)nccc5c4)CC3)sc2c1=O` [Compound 360, 3-ethyl-6-((4-(8-(methylamino)-1,7-naphthyridin-3-yl)piperazin-1-yl)methyl)thieno[3,2-d]pyrimidine-2,4(1H,3H)-dione formate], for which the IC50 is less than 0.1 µM at PARP1, greater than 3 µM at recombinant human PARP2, greater than 3 µM in assay [1] and greater than 3 µM in assay [2]. The inhibition at 10 µM (on recombinant human PARP2; in assay [2]) was 33 to 67% throughout.
For the molecule `CCn1c(=O)[nH]c2c(F)c(CN3CCN(c4ccc(C(=O)NC)nc4C)CC3)ccc2c1=S` [Compound 184, 5-(4-((3-ethyl-8-fluoro-2-oxo-4-thioxo-1,2,3,4-tetrahydroquinazolin-7-yl)methyl)piperazin-1-yl)-N,6-dimethylpicolinamide], the IC50 was less than 0.1 µM on PARP1, greater than 3 µM on recombinant human PARP2, less than 0.3 µM in assay [1] and greater than 3 µM in assay [2]. The inhibition at 10 µM (at recombinant human PARP2; in assay [2]) was 33 to 67% each time.
Regarding `CCC(=O)c1ccc(N2CCN(Cc3cc4[nH]c(=O)n(CC)c(=O)c4s3)CC2)c(C)n1` [Compound 326, 3-ethyl-6-((4-(2-methyl-6-propionylpyridin-3-yl)piperazin-1-yl)methyl) thieno[3,2-d]pyrimidine-2,4(1H,3H)-dione formate], the IC50 on PARP1 is less than 0.1 µM; on recombinant human PARP2 it was greater than 3 µM; in assay [1], greater than 3 µM; in assay [2] it was greater than 3 µM. The values for the inhibition at 10 µM (on recombinant human PARP2; in assay [2]) were 33 to 67% and less than 33%, respectively.
As for `CCn1c(=O)[nH]c2cc(C=C3CCN(c4ccc(C(=O)NC)nc4C)CC3)ccc2c1=S` [Compound 507, 5-(4-((3-ethyl-2-oxo-4-thioxo-1,2,3,4-tetrahydroquinazolin-7-yl)methylene)piperidin-1-yl)-N,6-dimethylpicolinamide], the half-maximal inhibitory concentration (IC50) is less than 0.1 µM on PARP1, greater than 3 µM on recombinant human PARP2, greater than 3 µM in assay [1] and greater than 3 µM in assay [2]. The inhibition at 10 µM was 33 to 67% at recombinant human PARP2 and greater than 67% in assay [2].
Turning to `CCn1c(=O)[nH]c2sc(CN3CCN(c4ccc(C(=O)NC)nc4)CC3)cc2c1=O` [Compound 60, 5-(4-((3-ethyl-2,4-dioxo-1,2,3,4-tetrahydrothieno[2,3-d]pyrimidin-6-yl)methyl)piperazin-1-yl)-N-methylpicolinamide formate], the IC50 at PARP1 was 0.1 to 3 µM; in assay [1], greater than 3 µM. In addition, the inhibition at 10 µM on recombinant human PARP2 was 33 to 67%; in assay [2], less than 33%.
`CNC(=O)c1ccc(N2CCN(Cc3ccc4c(=O)n(C)c(=O)[nH]c4c3)CC2)cn1` [Compound 2]: the concentration for half-maximal inhibition (IC50) on PARP1 is less than 0.1 µM; at recombinant human PARP2, greater than 3 µM; in assay [1], 0.3 to 3 µM; in assay [2], greater than 3 µM. For the same molecule, the inhibition at 10 µM is 33 to 67% at recombinant human PARP2 and less than 33% in assay [2].
For `CCn1c(=O)[nH]c2cc(CN3CCN(c4ccc(F)cc4F)CC3)ccc2c1=O` [Compound 226, 7-{[4-(2,4-difluorophenyl)piperazin-1-yl]methyl}-3-ethyl-1H-quinazoline-2,4-dione formate], the values for the concentration for half-maximal inhibition (IC50) (on PARP1; in assay [1]; in assay [2]) were less than 0.1 µM, greater than 3 µM and greater than 3 µM, respectively. Moreover, the inhibition at 10 µM on recombinant human PARP2 is 33 to 67%; in assay [2], less than 33%.
For `CCn1c(=O)[nH]c2cc(CN3CCN(c4ccc(C(=O)NC)nc4C)CC3)c(Br)cc2c1=S` [Compound 504, 5-(4-((6-bromo-3-ethyl-2-oxo-4-thioxo-1,2,3,4-tetrahydroquinazolin-7-yl)methyl)piperazin-1-yl)-N,6-dimethylpicolinamide], the concentration for half-maximal inhibition (IC50) was 0.1 to 3 µM on PARP1, greater than 3 µM at recombinant human PARP2, 0.3 to 3 µM in assay [1] and greater than 3 µM in assay [2]. Also, the inhibition at 10 µM at recombinant human PARP2 is 33 to 67%; in assay [2], less than 33%.
Turning to `CCn1c(=O)[nH]c2cc(CN3CC4(C3)CN(c3ccc(C(=O)NC)nc3)C4)ccc2c1=O` [Compound 100, 5-{6-[(3-ethyl-2,4-dioxo-1,2,3,4-tetrahydroquinazolin-7-yl)methyl]-2,6-diazaspiro[3.3]heptan-2-yl}-N-methylpyridine-2-carboxamide hemiformate], the half-inhibitory concentration (IC50) at PARP1 is 0.1 to 3 µM; at recombinant human PARP2, greater than 3 µM; in assay [1], greater than 3 µM; in assay [2] it was greater than 3 µM. For the same molecule, the inhibition at 10 µM at recombinant human PARP2 is 33 to 67%; in assay [2], less than 33%.
Consider `CCn1c(=O)[nH]c2cc(CN3CCN(c4ccc(C(N)=O)nc4C)CC3)sc2c1=O` [Compound 516, 5-(4-((3-ethyl-2,4-dioxo-1,2,3,4-tetrahydrothieno[3,2-d]pyrimidin-6-yl)methyl)piperazin-1-yl)-6-methylpicolinamide], for which the IC50 on PARP1 is less than 0.1 µM; at recombinant human PARP2, greater than 3 µM; in assay [1], greater than 3 µM; in assay [2] it was greater than 3 µM. Moreover, the inhibition at 10 µM on recombinant human PARP2 is 33 to 67%; in assay [2] it was less than 33%.

For the origin of these results see patent publication US20240132449A1, “HETEROCYCLIC COMPOUNDS AND METHODS OF USE THEREOF” (1cBio, Inc., priority 2022, published 2024).
